According to publication PMC11274883, “Anticancer Effect of Pt^[sequence], Pt^II5MESS, Pt^II56MESS and Their Platinum(IV)-Dihydroxy Derivatives against Triple-Negative Breast Cancer and Cisplatin-Resistant Colorectal Cancer” (Cancers, 2024):

What was measured:
Type in all cases: cell-based
MCF10A = assay: WST-1 cytotoxicity, 72 h; conditions: mean ± SEM
Method: Cells were seeded in 96-well flat-bottom culture plates at a concentration of 1000 cells per well. […] After 72 h, the medium was removed and replaced with new medium. The cell viability reagent WST-1 (10 µL, Roche Diagnostics, Indianapolis, IN, USA) was added to each well. After an hour, the absorbance was measured at 450 nm using a versatile microplate reader (Bio-strategy, Campbellfield, VIC, Australia). Three separate experiments were performed, each with n = 3 replicates. GraphPad prism 10 was used to calculate apparent IC50 values using the nonlinear regression model Y = Bottom + (Top-Bottom)/(1 + 10^(X-LogIC50)) where Top and bottom are plateaus in the y-axis (% survival). The R^2 value of the curve fits ranged from 0.8972 to 0.9794.

MDA−MB−231 cells [1] = assay: DCFDA cellular ROS detection assay; conditions: complexes at IC50, TBHP 20 µM
Method in brief: (§1)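 Cells seeded at 2500 cells/well overnight, then loaded with 25 µM DCFH-DA for 45 min. DCF fluorescence (ex/em 485/535 nm, RFU) read at multiple time points; 20 µM TBHP served as positive control. Three independent experiments in triplicate.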

HT29 cells [2] = assay: DCFDA cellular ROS detection assay; conditions: complexes at IC50, TBHP 20 µM
Method in brief: as §1

MDA−MB−231 cells [3] = assay: Western blot protein expression; conditions: MDA−MB−231, IC50, 72 h
Method: (§2) Protein extraction was then performed on ice. Media were collected in Eppendorf tubes, and centrifuged at 500× g for 5 min at 4 °C. Meanwhile, 200 µL of lysis RIPA buffer, made up of 150 mM NaCl, 50 mM Tris-HCl, pH 8.0, 0.1% Triton X-100, 0.5% sodium deoxycholate, 0.1% SDS and 1 mM sodium orthovanadate, was added to each well, the cells were scrapped into the buffer, and added to the media-derived pellets. The tubes were placed on the shaker for 10 min at 4 °C. Then, cell extracts were centrifuged at 12,000× g for 15 min at 4 °C, and the supernatants (containing the proteins) were collected. The Bio-Rad-DC protein assay (Bio-Rad, Hercules, CA, USA) was used to assess protein content. Laemmli protein sample buffer (4×) with β-mercaptoethanol (9%) was used to prepare a final protein concentration of 20 µg. The samples were then heated at 100 °C for 5 min. A final volume of 30 µL of each sample was added per well and subjected to SDS-PAGE using Bolt 4–12% Bis-Tris gel (Thermo Fisher, Eugene, OR, USA) at 80 V for 30 min and then 120 V for 60 min with PageRuler™ Prestained Protein or SeeBlue Prestained Protein Ladder (Thermo Fisher, Eugene, OR, USA). Proteins were subsequently transferred to a 0.2 µm PVDF membrane (Amersham, Cytiya) using a semi-dry blot transfer. The membrane was then blocked in 5% BSA in TBST, for 1 h and probed overnight at 4 °C with primary antibodies against several cell proliferation, apoptotic, anti-apoptotic, microtubule and autophagic protein markers listed in Table S7 as per the manufacturer’s protocol. The primary antibody was then removed, washed three times for 10 min with TBST and then membranes were treated with either mouse or rabbit HRP-coupled secondary antibodies (1/3000) for 1 h and 30 min. Protein band detection was then performed using the chemiluminescence ECL kit (Thermo Fisher, Eugene, OR, USA). Blot images were obtained using the Odyssey® FC imaging system (LI-COR Biosciences, Lincoln, NE, USA) and band intensities were quantified relatively to glyceraldehyde-3-phosphate dehydrogenase (GAPDH) and then normalised each replicate gel to its corresponding no treatment control using the ImageJ v1.53t software (National Institutes of Health, Bethesda, MD, USA). Each marker results from the same experiment or parallel experiment where the gels were processed in parallel. Three independent experiments per marker were conducted.

HT29 cells [4] = assay: Western blot protein expression; conditions: HT29, IC50, 72 h
Method: as §2

[5] = representative blot Figure S30G
[6] = representative blot Figure S30H

Cc1c(C)c2cccnc2c2ncccc12.N[C@H]1CCCC[C@@H]1N.O=[N+]([O-])[O-].O=[N+]([O-])[O-].[OH][Pt+2][OH] [Pt^IV56MESS(OH)2, [Pt(5,6-dimethyl-1,10-phenanthroline)(1S,2S-diaminocyclohexane)(dihydroxy)](NO3)2]
IC50 (MCF10A): 4.91 ± 1.45 µM
ROS production (MDA−MB−231 cells [1]; MDA−MB−231, 24 h): 292.21 RFU
ROS production (MDA−MB−231 cells [1]; MDA−MB−231, 48 h): 360.12 RFU
ROS production (MDA−MB−231 cells [1]; MDA−MB−231, 72 h): 386.28 RFU
ROS production (HT29 cells [2]; HT29, 24 h): 244 RFU
ROS production (HT29 cells [2]; HT29, 48 h): 318.56 RFU
ROS production (HT29 cells [2]; HT29, 72 h): 368.11 RFU
β-actin/GAPDH normalized to control (1) (MDA−MB−231 cells [3]; representative blot Figure S24A): 0.6671
β-tubulin/GAPDH normalized to control (1) (MDA−MB−231 cells [3]; representative blot Figure S24B): 0.4289
α-tubulin/GAPDH normalized to control (1) (MDA−MB−231 cells [3]; representative blot Figure S24C): 1.359
p-AKT/AKT/GAPDH normalized to control (1) (MDA−MB−231 cells [3]; representative blot Figure S25A): 0.79
p-ERK/ERK/GAPDH normalized to control (1) (MDA−MB−231 cells [3]; representative blot Figure S25B): 0.2828
p53/GAPDH normalized to control (1) (MDA−MB−231 cells [3]; representative blot Figure S25C): 1.183
p21/GAPDH normalized to control (1) (MDA−MB−231 cells [3]; representative blot Figure S25D): 1.053
Bax/GAPDH normalized to control (1) (MDA−MB−231 cells [3]; representative blot Figure S26A): 2.6
Bcl2/GAPDH normalized to control (1) (MDA−MB−231 cells [3]; representative blot Figure S26B): 0.8651
Cytochrome C/GAPDH normalized to control (1) (MDA−MB−231 cells [3]; representative blot Figure S26C): 2.185
Procaspase 8/GAPDH normalized to control (1) (MDA−MB−231 cells [3]; representative blot Figure S26D): 0.568
Cleaved BID/GAPDH normalized to control (1) (MDA−MB−231 cells [3]; representative blot Figure S26E): 8.533
Procaspase 9/GAPDH normalized to control (1) (MDA−MB−231 cells [3]; representative blot Figure S26F): 0.4557
Procaspase 3/GAPDH normalized to control (1) (MDA−MB−231 cells [3]; representative blot Figure S26G): 0.9471
PARP-1/GAPDH normalized to control (1) (MDA−MB−231 cells [3]; representative blot Figure S26H): 0.6182
Beclin1/GAPDH normalized to control (1) (MDA−MB−231 cells [3]; representative blot Figure S27A): 0.9592
ATG5/GAPDH normalized to control (1) (MDA−MB−231 cells [3]; representative blot Figure S27B): 0.8924
ATG16L1/GAPDH normalized to control (1) (MDA−MB−231 cells [3]; representative blot Figure S27C): 1.456
ATG9A/GAPDH normalized to control (1) (MDA−MB−231 cells [3]; representative blot Figure S27D): 0.8822
ATG4B/GAPDH normalized to control (1) (MDA−MB−231 cells [3]; representative blot Figure S27E): 2.179
LC3B/GAPDH normalized to control (1) (MDA−MB−231 cells [3]; representative blot Figure S27F): 0.7501
β-actin/GAPDH normalized to control (1) (HT29 cells [4]; representative blot Figure S28A): 1.209
β-tubulin/GAPDH normalized to control (1) (HT29 cells [4]; representative blot Figure S28B): 0.7075
α-tubulin/GAPDH normalized to control (1) (HT29 cells [4]; representative blot Figure S28C): 0.5719
p-AKT/AKT/GAPDH normalized to control (1) (HT29 cells [4]; representative blot Figure S29A): 0.7209
p-ERK/ERK/GAPDH normalized to control (1) (HT29 cells [4]; representative blot Figure S29B): 1.28
p53/GAPDH normalized to control (1) (HT29 cells [4]; representative blot Figure S29C): 5.047
p21/GAPDH normalized to control (1) (HT29 cells [4]; representative blot Figure S29D): 2.808
Bax/GAPDH normalized to control (1) (HT29 cells [4]; representative blot Figure S30A): 3.498
Bcl2/GAPDH normalized to control (1) (HT29 cells [4]; representative blot Figure S30B): 1.034
Cyt C/GAPDH normalized to control (1) (HT29 cells [4]; representative blot Figure S30C): 7.663
Procaspase 8/GAPDH normalized to control (1) (HT29 cells [4]; representative blot Figure S30D): 0.4035
Cleaved BID/GAPDH normalized to control (1) (HT29 cells [4]; representative blot Figure S30E): 2.651
Procaspase 9/GAPDH normalized to control (1) (HT29 cells [4]; representative blot Figure S30F): 0.4964
Cleaved caspase 3/GAPDH normalized to control (1) (HT29 cells [4]; [5]): 1.746
Procaspase 3/GAPDH normalized to control (1) (HT29 cells [4]; [5]): 1.297
Cleaved PARP-1/GAPDH normalized to control (1) (HT29 cells [4]; [6]): 2.724
PARP-1/GAPDH normalized to control (1) (HT29 cells [4]; [6]): 0.7172
Beclin1/GAPDH normalized to control (1) (HT29 cells [4]; representative blot Figure S31A): 6.222
ATG5/GAPDH normalized to control (1) (HT29 cells [4]; representative blot Figure S31B): 0.3221
ATG16L1/GAPDH normalized to control (1) (HT29 cells [4]; representative blot Figure S31C): 4.523
ATG9A/GAPDH normalized to control (1) (HT29 cells [4]; representative blot Figure S31D): 0.9044
ATG4B/GAPDH normalized to control (1) (HT29 cells [4]; representative blot Figure S31E): 0.9223
LC3B/GAPDH normalized to control (1) (HT29 cells [4]; representative blot Figure S31F): 1.976
